Assay results from ChEMBL document CHEMBL1201862, “PubChem BioAssay data set” (2004).
Active and inactive are the calls of the source.

Key:
[1] = nonselective StAR promoter luciferase inhibitors – cell-based, luminescence, luciferase reporter, counter-screen for LRH-1 inverse agonist project, dose response (AID 651969); format: functional
[2] = target: Steroidogenic factor 1 (Homo sapiens, UniProt Q13285); assay: Counterscreen for inverse agonists of the liver receptor homolog-1 (LRH-1; NR5A2): Luminescence-based cell-based high throughput dose response assay to identify inverse agonists of the Steroidogenic Factor 1 Nuclear Receptor (SF1; NR5A1).; format: functional
Steroidogenic factor 1, sequence (Q13285 whole entry): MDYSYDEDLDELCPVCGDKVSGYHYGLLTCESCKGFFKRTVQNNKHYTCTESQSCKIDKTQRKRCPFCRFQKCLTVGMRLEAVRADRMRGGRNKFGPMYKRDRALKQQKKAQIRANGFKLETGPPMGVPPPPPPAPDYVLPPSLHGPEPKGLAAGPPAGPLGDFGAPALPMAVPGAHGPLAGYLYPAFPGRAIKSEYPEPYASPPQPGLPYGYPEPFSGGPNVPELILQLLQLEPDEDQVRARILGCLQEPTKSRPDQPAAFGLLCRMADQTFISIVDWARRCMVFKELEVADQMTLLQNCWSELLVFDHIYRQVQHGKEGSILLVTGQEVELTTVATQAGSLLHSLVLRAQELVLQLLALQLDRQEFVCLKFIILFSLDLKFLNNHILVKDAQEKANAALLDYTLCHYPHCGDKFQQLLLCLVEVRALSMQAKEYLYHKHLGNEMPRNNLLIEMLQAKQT

[3] = target: Nuclear receptor subfamily 5 group A member 2 (Homo sapiens, UniProt O00482); format: functional, cell-based;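 also: HEK293T cells transfected with LRH-1 and a StAR promoter luciferase reporter; potency for inhibitors that lower LRH-1 driven reporter light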
Nuclear receptor subfamily 5 group A member 2, sequence (O00482 whole entry): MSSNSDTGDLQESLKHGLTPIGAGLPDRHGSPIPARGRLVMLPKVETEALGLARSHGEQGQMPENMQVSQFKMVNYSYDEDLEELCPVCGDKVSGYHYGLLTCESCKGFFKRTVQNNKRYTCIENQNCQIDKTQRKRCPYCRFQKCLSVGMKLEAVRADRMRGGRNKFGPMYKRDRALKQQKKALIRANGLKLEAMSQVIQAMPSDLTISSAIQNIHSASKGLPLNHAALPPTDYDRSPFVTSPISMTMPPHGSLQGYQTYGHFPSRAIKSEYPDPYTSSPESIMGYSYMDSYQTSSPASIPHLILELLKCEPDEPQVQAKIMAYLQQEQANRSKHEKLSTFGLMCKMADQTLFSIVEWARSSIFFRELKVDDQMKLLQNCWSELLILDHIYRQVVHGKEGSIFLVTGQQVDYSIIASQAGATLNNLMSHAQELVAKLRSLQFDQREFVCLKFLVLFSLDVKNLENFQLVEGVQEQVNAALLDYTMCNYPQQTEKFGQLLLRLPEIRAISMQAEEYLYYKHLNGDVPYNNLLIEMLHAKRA

[4] = target: T1, Endoribonuclease toxin MazF (Escherichia coli K-12, UniProt P0AE70); assay: substrate-only fluorescence increase artefacts – biochemical, single-stranded RNase substrate, counter-screen for MazEF activator project, dose response (AID 588502); format: functional
T1 sequence (P0AE70 whole entry): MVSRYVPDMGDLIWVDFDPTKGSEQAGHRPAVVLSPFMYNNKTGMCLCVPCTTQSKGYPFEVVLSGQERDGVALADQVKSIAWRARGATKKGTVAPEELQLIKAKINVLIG

[5] = target: T1, Endoribonuclease toxin MazF; assay: activation of MazEF endoribonuclease cleavage – biochemical, fluorescence, single-stranded RNA substrate, uHTS hits, dose response (AID 588481); format: functional
[6] = target: Large T antigen (Simian virus 40, UniProt P03070); format: functional, Betapolyomavirus macacae;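 also: Confirmatory-stage PubChem screen for compounds that inhibit SV40 T antigen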
Large T antigen, sequence (P03070 whole entry): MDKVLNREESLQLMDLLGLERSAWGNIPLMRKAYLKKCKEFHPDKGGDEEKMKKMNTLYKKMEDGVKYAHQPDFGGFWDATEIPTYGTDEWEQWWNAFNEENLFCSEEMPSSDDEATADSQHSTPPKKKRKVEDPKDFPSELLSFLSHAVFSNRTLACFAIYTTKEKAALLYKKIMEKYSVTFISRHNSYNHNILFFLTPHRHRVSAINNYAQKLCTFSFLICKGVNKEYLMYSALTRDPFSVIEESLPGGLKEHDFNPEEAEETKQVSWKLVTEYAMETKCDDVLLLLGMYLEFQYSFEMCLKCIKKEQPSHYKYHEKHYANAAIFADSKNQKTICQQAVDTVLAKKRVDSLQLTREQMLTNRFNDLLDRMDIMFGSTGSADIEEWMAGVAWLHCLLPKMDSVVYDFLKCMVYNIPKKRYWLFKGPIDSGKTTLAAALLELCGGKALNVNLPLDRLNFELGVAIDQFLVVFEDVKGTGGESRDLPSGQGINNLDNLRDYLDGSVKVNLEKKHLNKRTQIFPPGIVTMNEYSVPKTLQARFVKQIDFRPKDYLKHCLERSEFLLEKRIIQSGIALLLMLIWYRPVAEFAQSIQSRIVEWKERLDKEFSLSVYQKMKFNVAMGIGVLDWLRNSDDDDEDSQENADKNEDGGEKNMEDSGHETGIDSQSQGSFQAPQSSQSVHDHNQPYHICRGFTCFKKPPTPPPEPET

[7] = target: T2, Corticotropin-releasing factor receptor 2/Corticotropin-releasing factor-binding protein (Homo sapiens, UniProt P24387+Q13324); assay: activators of CRF receptor 2 with binding protein – uHTS hits, confirmation (AID 602473); format: functional; conditions: read-out: EC50_Mean
T2 sequence (Q13324 whole entry): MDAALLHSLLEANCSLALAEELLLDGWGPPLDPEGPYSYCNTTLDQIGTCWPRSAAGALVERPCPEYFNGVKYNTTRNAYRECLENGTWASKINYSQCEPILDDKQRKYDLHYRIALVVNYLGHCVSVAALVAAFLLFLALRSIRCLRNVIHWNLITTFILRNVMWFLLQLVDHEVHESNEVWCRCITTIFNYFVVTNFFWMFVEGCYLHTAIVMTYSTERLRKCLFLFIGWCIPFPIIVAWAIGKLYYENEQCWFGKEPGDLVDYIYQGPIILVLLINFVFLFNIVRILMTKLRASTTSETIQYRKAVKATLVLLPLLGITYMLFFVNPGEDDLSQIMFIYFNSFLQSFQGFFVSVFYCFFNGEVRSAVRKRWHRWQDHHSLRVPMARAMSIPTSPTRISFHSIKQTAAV
T2 sequence (P24387 whole entry): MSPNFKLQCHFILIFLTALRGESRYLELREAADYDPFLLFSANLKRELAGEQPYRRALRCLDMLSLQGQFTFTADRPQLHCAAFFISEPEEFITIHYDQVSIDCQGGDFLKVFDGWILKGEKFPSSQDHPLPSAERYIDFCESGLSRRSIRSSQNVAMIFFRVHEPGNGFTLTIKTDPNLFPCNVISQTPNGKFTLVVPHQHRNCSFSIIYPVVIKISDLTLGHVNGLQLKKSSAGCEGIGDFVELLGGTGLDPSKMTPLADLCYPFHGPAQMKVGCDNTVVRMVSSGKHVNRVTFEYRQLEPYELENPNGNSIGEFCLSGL

[8] = system: HEK293; assay: EBV LMP1 TES2 canonical NF-kB signalling blockers – cell-based, HEK293, luciferase, cherry-pick, dose response (AID 588343); format: functional; conditions: Homo sapiens
[9] = viability loss in HEK293 cells – cell-based, plate reader, cherry-picked samples, cytotoxicity control, dose response (AID 743446); format: functional
[10] = blockade of melanocortin 4 receptor signaling – cell-based, plate reader, cherry pick, counter-screen for LGR2 antagonist project, dose response (AID 743444); format: functional;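 also: transfected HEK 293 cells stimulated with alpha-MSH peptide; potency of inhibitors of the alpha-MSH evoked signal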
[11] = A549 cell cytotoxicity, dose response, cytotoxicity control, plate reader, cherry-pick, antagonist series (AID 743412); format: functional, cell-based
[12] = blockers of bursicon-stimulated LGR2 cAMP reporter – cell-based, HEK293, CRE-luciferase reporter, cherry pick, set 2, dose response (AID 743343); format: functional;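 also: transfected cells were stimulated with diluted bursicon conditioned medium after compound addition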
[13] = target: FAD-linked sulfhydryl oxidase ALR (Homo sapiens, UniProt P55789); assay: ALR-catalysed DTT oxidation blockers – biochemical, H2O2 detection, luminescence, cherry-pick, dose response (AID 493248)
FAD-linked sulfhydryl oxidase ALR, sequence (P55789 whole entry): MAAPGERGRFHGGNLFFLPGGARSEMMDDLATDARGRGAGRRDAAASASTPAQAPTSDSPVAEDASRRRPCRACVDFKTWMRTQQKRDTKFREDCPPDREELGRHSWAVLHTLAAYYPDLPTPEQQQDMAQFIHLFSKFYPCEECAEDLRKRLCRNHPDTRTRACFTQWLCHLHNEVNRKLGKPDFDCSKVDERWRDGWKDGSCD

[14] = NIH-3T3 fibroblast cytotoxicity, dose response, cytotoxicity control, cell-based, fluorescence, Alamar Blue, secondary assay (AID 2327); format: functional;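 also: NIH-3T3 mouse fibroblasts cultured with fluconazole at 8 µg/mL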
[15] = target: Genome polyprotein (dengue virus type 2, UniProt P29990); assay: flavivirus cap methylation enzyme inhibition – biochemical, confirmation dose response, primary screen (AID 588689); format: functional
Genome polyprotein, sequence (P29990 2492-3391 limits assumed): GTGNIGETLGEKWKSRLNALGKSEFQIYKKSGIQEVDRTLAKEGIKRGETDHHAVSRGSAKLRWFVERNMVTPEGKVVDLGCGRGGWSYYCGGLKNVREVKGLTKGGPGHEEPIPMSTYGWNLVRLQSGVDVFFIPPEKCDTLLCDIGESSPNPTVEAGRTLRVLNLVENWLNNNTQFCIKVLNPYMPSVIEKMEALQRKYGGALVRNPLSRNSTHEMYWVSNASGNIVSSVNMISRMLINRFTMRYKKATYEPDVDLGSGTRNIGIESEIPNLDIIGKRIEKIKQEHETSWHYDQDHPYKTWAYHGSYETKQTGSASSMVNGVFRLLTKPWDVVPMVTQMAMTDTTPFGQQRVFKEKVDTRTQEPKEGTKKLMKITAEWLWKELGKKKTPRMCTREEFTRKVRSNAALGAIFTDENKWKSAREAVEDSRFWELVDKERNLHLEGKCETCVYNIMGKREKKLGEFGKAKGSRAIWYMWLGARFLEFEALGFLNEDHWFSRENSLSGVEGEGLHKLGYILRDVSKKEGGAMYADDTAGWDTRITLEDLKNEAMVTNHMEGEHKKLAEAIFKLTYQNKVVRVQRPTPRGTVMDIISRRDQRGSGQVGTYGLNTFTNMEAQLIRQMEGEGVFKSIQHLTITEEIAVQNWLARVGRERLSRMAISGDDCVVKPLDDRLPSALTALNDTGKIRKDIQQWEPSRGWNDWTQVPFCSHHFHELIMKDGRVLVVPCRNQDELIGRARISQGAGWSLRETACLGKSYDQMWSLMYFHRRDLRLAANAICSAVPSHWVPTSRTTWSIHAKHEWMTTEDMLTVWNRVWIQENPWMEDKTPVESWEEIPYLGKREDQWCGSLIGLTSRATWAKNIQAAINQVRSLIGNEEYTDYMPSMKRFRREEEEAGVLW

[16] = target: T3, Replicative DNA helicase DnaB (Mycobacterium tuberculosis, UniProt P9WMR3); assay: DnaB intein splicing inhibitors, dose response, biochemical, cell-free fluorescence (AID 449749); format: functional
T3 sequence (P9WMR3 whole entry): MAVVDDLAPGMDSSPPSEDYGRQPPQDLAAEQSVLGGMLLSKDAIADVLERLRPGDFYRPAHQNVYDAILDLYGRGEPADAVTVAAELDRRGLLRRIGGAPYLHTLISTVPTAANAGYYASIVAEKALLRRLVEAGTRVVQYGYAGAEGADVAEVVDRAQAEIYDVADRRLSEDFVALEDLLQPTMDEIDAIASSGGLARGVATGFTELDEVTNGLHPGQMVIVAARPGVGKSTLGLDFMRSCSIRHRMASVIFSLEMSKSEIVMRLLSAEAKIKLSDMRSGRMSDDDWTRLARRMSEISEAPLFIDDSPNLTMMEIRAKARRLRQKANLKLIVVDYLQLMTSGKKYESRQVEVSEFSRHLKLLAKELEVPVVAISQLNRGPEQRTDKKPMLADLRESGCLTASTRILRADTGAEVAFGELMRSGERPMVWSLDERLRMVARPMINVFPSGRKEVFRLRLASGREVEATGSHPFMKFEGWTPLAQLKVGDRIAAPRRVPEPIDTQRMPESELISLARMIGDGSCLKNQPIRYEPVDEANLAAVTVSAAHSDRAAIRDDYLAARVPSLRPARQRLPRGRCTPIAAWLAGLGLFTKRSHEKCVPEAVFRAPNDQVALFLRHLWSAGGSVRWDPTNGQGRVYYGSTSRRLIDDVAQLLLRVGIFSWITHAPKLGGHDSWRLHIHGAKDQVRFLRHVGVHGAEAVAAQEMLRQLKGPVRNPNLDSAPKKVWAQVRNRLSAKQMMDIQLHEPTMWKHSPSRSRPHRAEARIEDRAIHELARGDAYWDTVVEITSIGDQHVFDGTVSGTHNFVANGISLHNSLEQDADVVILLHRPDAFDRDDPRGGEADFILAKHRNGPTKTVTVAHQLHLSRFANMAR

[17] = target: T4, Protein RecA (Mycobacterium tuberculosis, UniProt P9WHJ3); assay: Fluorescence Cell-Free Homogeneous Dose Retest to Identify Inhibitors of RecA-Intein Splicing Activity. [Related pubchem assays (depositor defined):AID2097, AID2223, AID489010, AID492950]; format: functional
T4 sequence (P9WHJ3 whole entry): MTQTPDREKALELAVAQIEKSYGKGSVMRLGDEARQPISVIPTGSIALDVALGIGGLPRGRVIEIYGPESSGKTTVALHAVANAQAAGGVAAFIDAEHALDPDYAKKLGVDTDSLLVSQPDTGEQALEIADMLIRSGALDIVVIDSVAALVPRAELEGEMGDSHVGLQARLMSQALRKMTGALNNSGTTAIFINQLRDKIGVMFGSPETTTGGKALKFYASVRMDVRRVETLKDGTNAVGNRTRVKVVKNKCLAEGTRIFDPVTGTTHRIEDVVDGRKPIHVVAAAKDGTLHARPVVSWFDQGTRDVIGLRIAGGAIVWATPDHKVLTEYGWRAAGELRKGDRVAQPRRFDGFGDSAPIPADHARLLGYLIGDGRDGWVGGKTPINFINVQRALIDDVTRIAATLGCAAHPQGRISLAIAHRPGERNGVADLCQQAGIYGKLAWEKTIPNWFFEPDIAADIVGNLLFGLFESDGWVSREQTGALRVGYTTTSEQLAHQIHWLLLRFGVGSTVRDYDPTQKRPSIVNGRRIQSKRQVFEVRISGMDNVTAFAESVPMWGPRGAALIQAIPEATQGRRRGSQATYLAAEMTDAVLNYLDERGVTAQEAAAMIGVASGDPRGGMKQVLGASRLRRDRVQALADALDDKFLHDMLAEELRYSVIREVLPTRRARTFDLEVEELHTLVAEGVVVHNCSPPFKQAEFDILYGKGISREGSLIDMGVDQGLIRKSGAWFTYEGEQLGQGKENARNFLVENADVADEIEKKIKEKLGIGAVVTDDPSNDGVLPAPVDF

[18] = target: Peroxisome proliferator-activated receptor gamma/Nuclear receptor coactivator 2 (Homo sapiens, UniProt P37231); format: functional;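 also: agonist potency for raising coactivator recruitment to the receptor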
[19] = target: Peroxisome proliferator-activated receptor gamma/Nuclear receptor coactivator 1 (Homo sapiens, UniProt P37231); format: functional;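 also: agonist potency as compounds enhance coactivator SRC-1 recruitment to PPARgamma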
[20] = target: Peroxisome proliferator-activated receptor gamma/Nuclear receptor coactivator 3 (Homo sapiens, UniProt P37231); format: functional;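 also: agonist potency for raising coactivator recruitment to the receptor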
Peroxisome proliferator-activated receptor gamma/Nuclear receptor coactivator 3, sequence (P37231 whole entry): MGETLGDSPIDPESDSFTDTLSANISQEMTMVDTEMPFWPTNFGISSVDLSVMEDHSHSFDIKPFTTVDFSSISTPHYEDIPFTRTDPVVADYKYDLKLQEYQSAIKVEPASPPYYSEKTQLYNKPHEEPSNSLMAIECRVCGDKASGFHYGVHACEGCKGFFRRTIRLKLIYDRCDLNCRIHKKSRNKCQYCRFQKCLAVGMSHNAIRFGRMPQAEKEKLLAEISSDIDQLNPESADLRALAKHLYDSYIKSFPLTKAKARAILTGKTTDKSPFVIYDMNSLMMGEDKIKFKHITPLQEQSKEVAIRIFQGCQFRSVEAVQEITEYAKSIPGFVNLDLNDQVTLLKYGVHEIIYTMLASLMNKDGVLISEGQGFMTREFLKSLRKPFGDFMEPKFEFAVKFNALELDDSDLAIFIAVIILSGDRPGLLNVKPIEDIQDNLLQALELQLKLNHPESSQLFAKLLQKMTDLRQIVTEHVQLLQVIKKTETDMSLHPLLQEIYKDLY
Peroxisome proliferator-activated receptor gamma/Nuclear receptor coactivator 3, sequence (Q9Y6Q9 whole entry, further chain): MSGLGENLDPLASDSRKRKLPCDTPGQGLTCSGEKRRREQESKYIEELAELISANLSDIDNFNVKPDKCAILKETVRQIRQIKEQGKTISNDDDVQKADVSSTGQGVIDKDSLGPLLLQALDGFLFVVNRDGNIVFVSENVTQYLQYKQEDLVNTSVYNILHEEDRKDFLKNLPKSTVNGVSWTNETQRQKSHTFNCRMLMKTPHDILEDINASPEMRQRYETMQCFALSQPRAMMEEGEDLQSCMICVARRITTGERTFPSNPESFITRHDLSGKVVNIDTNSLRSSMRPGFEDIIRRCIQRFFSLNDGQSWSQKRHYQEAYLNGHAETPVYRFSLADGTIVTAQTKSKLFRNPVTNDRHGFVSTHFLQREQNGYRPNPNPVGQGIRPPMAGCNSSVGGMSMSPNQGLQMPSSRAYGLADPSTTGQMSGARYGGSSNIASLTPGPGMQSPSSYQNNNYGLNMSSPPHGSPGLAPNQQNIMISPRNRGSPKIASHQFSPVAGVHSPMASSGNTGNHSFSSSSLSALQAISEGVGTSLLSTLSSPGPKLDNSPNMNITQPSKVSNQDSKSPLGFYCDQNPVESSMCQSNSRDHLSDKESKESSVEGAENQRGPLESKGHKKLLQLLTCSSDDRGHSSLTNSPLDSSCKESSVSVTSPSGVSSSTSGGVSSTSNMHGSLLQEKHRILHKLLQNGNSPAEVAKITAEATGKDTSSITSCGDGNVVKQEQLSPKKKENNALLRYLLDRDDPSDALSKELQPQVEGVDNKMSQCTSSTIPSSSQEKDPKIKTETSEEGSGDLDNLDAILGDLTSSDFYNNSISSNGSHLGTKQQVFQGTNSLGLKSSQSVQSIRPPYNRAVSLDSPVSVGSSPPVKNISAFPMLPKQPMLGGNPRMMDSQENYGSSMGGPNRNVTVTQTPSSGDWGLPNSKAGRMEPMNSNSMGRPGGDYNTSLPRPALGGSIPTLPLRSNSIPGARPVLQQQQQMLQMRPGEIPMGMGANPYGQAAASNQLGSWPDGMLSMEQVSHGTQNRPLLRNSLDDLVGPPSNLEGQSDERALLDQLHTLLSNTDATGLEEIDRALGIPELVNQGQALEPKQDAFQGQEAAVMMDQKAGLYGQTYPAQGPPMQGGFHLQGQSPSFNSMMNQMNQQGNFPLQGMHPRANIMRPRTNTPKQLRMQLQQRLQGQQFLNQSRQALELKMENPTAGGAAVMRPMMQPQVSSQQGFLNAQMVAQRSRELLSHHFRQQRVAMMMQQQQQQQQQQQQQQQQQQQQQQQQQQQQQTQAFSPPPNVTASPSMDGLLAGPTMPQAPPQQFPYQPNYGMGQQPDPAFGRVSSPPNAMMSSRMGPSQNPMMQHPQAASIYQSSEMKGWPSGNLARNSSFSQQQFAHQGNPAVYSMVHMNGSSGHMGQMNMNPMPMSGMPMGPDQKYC

For `Cc1ccc(C)c(NC(=O)CSc2nc(O)c3c[nH]nc3n2)c1`, the IC50 [1] was 35.9 µM (inactive), the IC50 [2] was 6.65 µM (active) and the IC50 [3] was 29 µM (inactive).
In the case of `CCn1c(/C=C/c2ccc(O)c(O)c2)nc2ccccc2c1=O`, the EC50 [4] is reported as 88.4 µM (inactive), the EC50 [5] is reported as > 99 µM (inactive) and the IC50 [6] is reported as 35.6 µM (active).
In the case of `CCCCC(=O)Nc1ccc(C(=O)Nc2ccc(OC)cc2[N+](=O)[O-])cc1`, the EC50 [7] is reported as 7.74 µM (active), the EC50 [4] is reported as > 99 µM (inactive) and the EC50 [5] is reported as > 99 µM (inactive).
For `Cc1csc(NC(=O)c2ccc(N3CCCC3=O)cc2)n1`, the AC50 [8] was 1.52 µM (active), the AC50 [9] was > 52 µM (inactive) and the AC50 [10] was 1.93 µM (active). The AC50 [11] was > 52 µM (inactive) and the AC50 [12] was 2.05 µM (active).
For `CC(=O)Nc1ccc(NC(=O)CSc2ccc(-c3ccc(-n4ccnc4)cc3)nn2)cc1`, the IC50 [1] was 35.9 µM (inactive), the IC50 [2] was 35.9 µM (inactive) and the IC50 [3] was 35.9 µM (inactive).
For `O=C(NNc1ccc(O)cc1)c1ccc(Br)cc1`, the AC50 [13] was 0.096 µM (active), the EC50 [14] was 28.9 µM (active) and the IC50 [15] was > 100 µM (active).
For `CC1=NN(Cc2ccccc2)C(=O)C1C(c1ccc(Cl)cc1)C(C#N)C#N` (configuration not stated), the AC50 [16] was 5.34 µM (active), the IC50 [15] was 55.2 µM (active) and the EC50 [17] was 2.5 µM (active).
In the case of `CC(=O)Nc1ccc(NC(=O)CSc2nnc(NC(=O)C3CC3)s2)cc1`, the IC50 [1] is reported as 35.9 µM (inactive), the IC50 [2] is reported as 8.29 µM (active) and the IC50 [3] is reported as 9.26 µM (active).
With `O=C(CSc1ncnc2c1nnn2Cc1ccccc1F)N1CCN(c2ccccc2)CC1` the EC50 [18] was > 79.4 µM (not active), the EC50 [19] was > 79.4 µM (not active) and the AC50 [16] was 3.65 µM (active). The EC50 [20] was > 79.4 µM (not active) and the EC50 [17] was 5.75 µM (active).
For `O=C(O)[C@H](Cc1ccccc1)N1C(=O)c2c(Cl)c(Cl)c(Cl)c(Cl)c2C1=O`, the IC50 [15] was 23.9 µM (active).
